Results on one compound are retold here after patent US7488841B2, “Composition containing acyl group” (Asahi Kasei Chemicals Corporation, priority 2002, dated 2009).

A short description of this data set: Moisture absorption rate under high humidity and moisture retention under low humidity. It is filed as physicochemical. The note with it: 25° C.; for Moisture absorption rates under low humidity after different elapsed time (%): after 313 hours at high humidity. As to the method:
The moisture absorption rate under high humidity and the moisture retention rate under low humidity were evaluated for the composition produced in Example 7 and urea as a contrast. Specifically, 1 g of dried sample was dried in a weighing bottle and weighed precisely, and left stand in a desiccator under relative humidity as high as 84% at 25° C. while measuring the sample weight with time until 313 hours has elapsed. Then, the same sample was transferred into a desiccator under relative humidity as low as 33% at 25° C., and left stand in the desiccator while measuring the sample weight with time in the same manner as above considering the point 313 hours has elapsed as a test starting point (0 hr). The moisture absorption rate was obtained in accordance with the following equation. Moisture absorption rate (%)=(Wt−W0/W0)×100 W0: dry weight before being left stand, Wt: weight at the time of each measuring

Consider `NC(N)=O` [Urea, urea], for which the deliquescent properties entry (during the course of moisture absorption, relative humidity 84%) is given as “showed its deliquescent properties”. Moreover, under “left stand under low humidity, relative humidity 33%”, the moisture retention result is recorded as “released almost all its moisture”. Also, the “Moisture absorption rates under low humidity after different elapsed time (%)” value by setting is: (relative humidity 33%, 0 Hr) 72.7%; (relative humidity 33%, 25 Hr) 1.2%; (relative humidity 33%, 49 Hr) 0.3%; (relative humidity 33%, 75 Hr) 0.4%; (relative humidity 33%, 141 Hr) 0.3%. For the same compound, the “Moisture absorption rates under high humidity after different elapsed time (%)” value is, setting by setting: (relative humidity 84%, 5 Hr) 0.2%; (relative humidity 84%, 27 Hr) 3.2%; (relative humidity 84%, 48 Hr) 7.4%; (relative humidity 84%, 120 Hr) 24.7%; (relative humidity 84%, 197 Hr) 42.6%; (relative humidity 84%, 313 Hr) 72.7%.
